Values quoted from earlier work, collected in patent publication US9616098B2, “Formulations of vancomycin” (SCIDOSE, LLC, priority 2013, dated 2017).

For `CN[C@H](CC(C)C)C(=O)N[C@H]1C(=O)N[C@@H](CC(N)=O)C(=O)N[C@H]2C(=O)N[C@H]3C(=O)N[C@H](C(=O)N[C@H](C(=O)O)c4cc(O)cc(O)c4-c4cc3ccc4O)[C@H](O)c3ccc(c(Cl)c3)Oc3cc2cc(c3O[C@@H]2O[C@H](CO)[C@@H](O)[C@H](O)[C@H]2O[C@H]2C[C@](C)(N)[C@H](O)[C@H](C)O2)Oc2ccc(cc2Cl)[C@H]1O` [Vancomycin], the “stable in water after reconstitution” value is given as “approximately 24 hours”.
